According to patent US10206907B2, “Compounds useful for the treatment of degenerative and inflammatory diseases” (GALAPAGOS NV, priority 2008, dated 2019):
pEC50, pIC50: −log10 of the molar value. Read-outs that look alike come from different tables or passages of the source.

Tests used:
[1] = molecular target: Recombinant human JAK2 catalytic domain (Homo sapiens (Human), UniProt O60674); assay: JAK2 inhibition assay; type: biochemical; details: semi-quantitative score
Procedure, shortened: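 Activity was taken as vehicle cpm minus cpm with 10 μM staurosporine, and inhibition was expressed on that scale. Incubation was 90 min at 30 °C, followed by acid quench, phosphoric acid washes and Microscint counting. Compounds were tested as dose series to obtain IC50.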

[2] = molecular target: Recombinant human JAK3 catalytic domain (Homo sapiens (Human), UniProt P52333); assay: JAK3 inhibition assay; type: biochemical
MMP13 in SW1353 cells = assay: OSM/IL-1β signaling assay (MMP13 levels in SW1353 cells); type: cell-based; details: Homo sapiens; SW1353 cells, OSM and IL-1β triggered, MMP13 levels 48 hours after triggering; read-out: MMP13 EC50;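 also: secreted MMP13 captured by antibody, activated with APMA and its activity read by fluorescence, inhibition scaled between vehicle-treated triggered wells (0%) and untriggered wells (100%)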
TNF-alpha release = assay: Septic shock model (LPS-induced TNF release); type: in vivo, mouse; details: 30 mg/kg po, BALB/cJ mice, LPS ip; statistically significant
Method: Injection of lipopolysaccharide (LPS) induces a rapid release of soluble tumour necrosis factor (TNF-alpha) into the periphery. This model is used to analyse prospective blockers of TNF release in vivo.
Six BALB/cJ female mice (20 g) per group were treated at the intended dosing once, po. Thirty minutes later, LPS (15 μg/kg; E. Coli serotype 0111:B4) was injected ip. Ninety minutes later, mice were euthanized and blood was collected. Circulating TNF alpha levels were determined using commercially available ELISA kits. Dexamethasone (5 μg/kg) was used as a reference anti-inflammatory compound. Selected compounds are tested at one or multiple doses, e.g. 3 and/or 10 and/or 30 mg/kg, po.

[3] = Microsomal stability, human liver microsomes; type: in vitro ADME; details: percentage of compound remaining after 60 minutes, 3 μM compound
Procedure, shortened: (§1)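 Percent parent remaining after 60 min was determined by LCMS against a time-zero sample quenched before microsome addition. Incubations ran at 37°C with liver microsomes and a G6PDH-based NADPH-regenerating cofactor mix. Quench was MeOH or ACN (1:1).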

[4] = Microsomal stability, rat liver microsomes; type: in vitro ADME; details: percentage of compound remaining after 60 minutes, 3 μM compound
Procedure, shortened: as §1

[5] = Caco2 permeability (bi-directional); type: in vitro ADME, human; details: human, pH 7.4; for Papp A→B at 1 h, 10 µM: Caco-2, apical to basolateral, read-out: Papp (A2B); for efflux ratio at 1 h, 10 µM: Caco-2, ratio of PappB>A/PappA>B
Procedure, shortened: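 Compound concentrations in both chambers were measured by LC-MS/MS after 1 h incubation at 37 °C on an orbital shaker. Efflux ratio is PappB>A over PappA>B. Lucifer Yellow (50 μM in donor) confirmed layer integrity, with permeability of ≤100 nm/s required.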

Recombinant human JAK3 catalytic domain, sequence (P52333 781-1124): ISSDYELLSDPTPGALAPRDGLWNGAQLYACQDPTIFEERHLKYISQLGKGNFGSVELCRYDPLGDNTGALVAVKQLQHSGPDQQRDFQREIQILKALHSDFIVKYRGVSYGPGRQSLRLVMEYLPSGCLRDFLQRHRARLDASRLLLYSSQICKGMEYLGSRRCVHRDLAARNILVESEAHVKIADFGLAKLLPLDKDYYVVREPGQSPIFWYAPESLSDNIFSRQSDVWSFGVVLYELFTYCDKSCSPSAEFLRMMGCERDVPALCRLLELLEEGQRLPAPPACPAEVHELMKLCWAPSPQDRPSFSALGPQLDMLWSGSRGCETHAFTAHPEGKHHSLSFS
Recombinant human JAK2 catalytic domain, sequence (O60674 808-1132): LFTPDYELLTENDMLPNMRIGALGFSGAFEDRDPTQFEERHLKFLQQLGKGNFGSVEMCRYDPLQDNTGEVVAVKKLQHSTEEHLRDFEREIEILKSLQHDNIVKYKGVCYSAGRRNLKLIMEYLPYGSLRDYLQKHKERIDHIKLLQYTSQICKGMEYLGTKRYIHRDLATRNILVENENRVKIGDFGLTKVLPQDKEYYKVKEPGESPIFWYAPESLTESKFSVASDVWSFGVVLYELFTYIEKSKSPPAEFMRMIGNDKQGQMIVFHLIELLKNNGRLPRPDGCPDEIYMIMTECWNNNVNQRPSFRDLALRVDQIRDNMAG

In the case of O=C(Nc1nc2cccc(-c3ccc(CN4CCOCC4)cc3)n2n1)C1CC1 [Compound 18, N-(5-(4-(morpholinomethyl)phenyl)-[1,2,4]triazolo[1,5-a]pyridin-2-yl)cyclopropanecarboxamide], the pIC50 [1] was under 6.00, the pIC50 ([2]; semi-quantitative score) was under 6.00 and the pEC50 (MMP13 in SW1353 cells) was under 6.00. For the same molecule, the “reduction in the TNF release” value (TNF-alpha release) was over 50%, the “Microsomal Stability Human (%)” value [3] was “**** (**** 76-100)” and the “Microsomal Stability Rat (%)” value [4] was “** (** 26-50)”.

For CC1CCCN(C(=O)c2ccc(-c3cccc4nc(NC(=O)C5CC5)nn34)cc2)C1 (stereo not drawn) [Compound 145, N-(5-(4-(3-methylpiperidine-1-carbonyl)phenyl)-[1,2,4]triazolo[1,5-a]pyridin-2-yl)cyclopropanecarboxamide], the pEC50 (MMP13 in SW1353 cells) was under 6.00, the “Microsomal Stability Human (%)” value [3] was “*** (*** 51-75)” and the “Microsomal Stability Rat (%)” value [4] was “* (* 0-25)”. The Papp A→B at 1 h, 10 µM [5] was 14.7 ×10⁻⁶ cm/s and the efflux ratio at 1 h, 10 µM [5] was 2.

For N#Cc1ccc(COc2ccc(-c3cccc4nc(NC(=O)C5CC5)nn34)cc2)cn1 [Compound 176, N-(5-(4-((6-cyanopyridin-3-yl)methoxy)phenyl)-[1,2,4]triazolo[1,5-a]pyridin-2-yl)cyclopropanecarboxamide], the pIC50 [1] was over 7.00, the pIC50 [2] was over 7.00 and the pEC50 (MMP13 in SW1353 cells) was 6.30 to 9.00. For the same molecule, the “reduction in the TNF release” value (TNF-alpha release) was over 50%, the “Microsomal Stability Human (%)” value [3] was “**** (**** 76-100)” and the “Microsomal Stability Rat (%)” value [4] was “**** (**** 76-100)”. The efflux ratio at 1 h, 10 µM [5] was 0.8.

In the case of CC1CN(C(=O)c2ccc(-c3cccc4nc(NC(=O)C5CC5)nn34)cc2)CC(C)O1 (stereo not drawn) [Compound 215, Cyclopropanecarboxylic acid {5-[4-(2,6-dimethyl-morpholine-4-carbonyl)-phenyl]-[1,2,4]triazolo[1,5-a]pyridin-2-yl}-amide], the pIC50 [1] was 6.30 to 7.00, the pIC50 ([2]; semi-quantitative score) was over 7.00 and the pEC50 (MMP13 in SW1353 cells) was under 6.00. The “reduction in the TNF release” value (TNF-alpha release) was over 50%, the “Microsomal Stability Human (%)” value [3] was “**** (**** 76-100)” and the “Microsomal Stability Rat (%)” value [4] was “**** (**** 76-100)”. The Papp A→B at 1 h, 10 µM [5] was 6.05 ×10⁻⁶ cm/s and the efflux ratio at 1 h, 10 µM [5] was 9.3.

For CC1(C)CN(C(=O)c2ccc(-c3cccc4nc(NC(=O)C5CC5)nn34)cc2)C1 [Compound 330, Cyclopropanecarboxylic acid (5-[4-(3,3-dimethyl-azetidine-1-carbonyl)-phenyl]-[1,2,4]triazolo[1,5-a]pyridin-2-yl}-amide], the pIC50 [1] was 6.30 to 7.00, the pIC50 ([2]; semi-quantitative score) was 6.30 to 7.00 and the pEC50 (MMP13 in SW1353 cells) was 6.00 to 6.30. For the same molecule, the “Microsomal Stability Human (%)” value [3] was “**** (**** 76-100)”, the “Microsomal Stability Rat (%)” value [4] was “**** (**** 76-100)” and the Papp A→B at 1 h, 10 µM [5] was 6.5 ×10⁻⁶ cm/s. It also gave an efflux ratio at 1 h, 10 µM [5] of 5.5.
